Source: US12077503B2, “Substituted cyclic amides and their use as herbicides” (FMC CORPORATION, priority 2015, dated 2024)

Columns and labels:
Type in all cases: in vivo
[1] = test system: ivy-leaved morning glory (Ipomoea hederacea); assay: Test G Post-Emergence Protocol; settings: Ipomoea, post-emergence, 312 h, read-out: Morningglory, Ivy-leaved damage rating; for pest or weed control at 15.625 g/ha: 15.625 g ai/ha, evaluated after 13 days (100=total damage to plant; 0=no damage to plant); for pest or weed control at 62.5 g/ha: 62.5 g ai/ha; for pest or weed control at 62.5 g/ha / pest or weed control at 250 g/ha: evaluated after 13 days, 100=total damage to plant, 0=no damage to plant; for pest or weed control at 250 g/ha: 250 g ai/ha
Method in brief: (§1)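 Foliar application was made 8 days after sowing, using an aqueous spray of the active in acetone/water (50:50) with 0.5% Tween 20, at doses of 15.625, 62.5 or 250 g/ha. Injury was assessed 13 days later, where 100 meant the plant was fully damaged.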

[2] = test system: giant foxtail (Setaria faberi); assay: Test G Post-Emergence Protocol; settings: Setaria faberi, post-emergence, 312 h, read-out: Foxtail, Giant damage rating; for pest or weed control at 15.625 g/ha: 15.625 g ai/ha, evaluated after 13 days (100=total damage to plant; 0=no damage to plant); for pest or weed control at 62.5 g/ha: 62.5 g ai/ha; for pest or weed control at 62.5 g/ha / pest or weed control at 250 g/ha: evaluated after 13 days, 100=total damage to plant, 0=no damage to plant; for pest or weed control at 250 g/ha: 250 g ai/ha
Method in brief: as §1

corn (Zea mays) [3] = assay: Test G Post-Emergence Protocol; settings: Zea mays, post-emergence, 312 h, read-out: Corn damage rating; for plant injury at 15.625 g/ha: 15.625 g ai/ha, evaluated after 13 days (100=total damage to plant; 0=no damage to plant); for plant injury at 62.5 g/ha: 62.5 g ai/ha; for plant injury at 62.5 g/ha / plant injury at 250 g/ha: evaluated after 13 days, 100=total damage to plant, 0=no damage to plant; for plant injury at 250 g/ha: 250 g ai/ha
Method in brief: as §1

[4] = test system: velvetleaf (Abutilon theophrasti); assay: Test G Post-Emergence Protocol; settings: Abutilon theophrasti, post-emergence, 312 h, read-out: Velvetleaf damage rating; for pest or weed control at 15.625 g/ha: 15.625 g ai/ha, evaluated after 13 days (100=total damage to plant; 0=no damage to plant); for pest or weed control at 62.5 g/ha: 62.5 g ai/ha; for pest or weed control at 62.5 g/ha / pest or weed control at 250 g/ha: evaluated after 13 days, 100=total damage to plant, 0=no damage to plant; for pest or weed control at 250 g/ha: 250 g ai/ha
Method in brief: as §1

[5] = test system: barnyardgrass (Echinochloa crus-galli); assay: Test G Post-Emergence Protocol; settings: Echinochloa crus-galli, post-emergence, 312 h, read-out: Barnyardgrass damage rating; for pest or weed control at 15.625 g/ha: 15.625 g ai/ha, evaluated after 13 days (100=total damage to plant; 0=no damage to plant); for pest or weed control at 62.5 g/ha: 62.5 g ai/ha; for pest or weed control at 62.5 g/ha / pest or weed control at 250 g/ha: evaluated after 13 days, 100=total damage to plant, 0=no damage to plant; for pest or weed control at 250 g/ha: 250 g ai/ha
Method in brief: as §1

[6] = test system: redroot pigweed (Amaranthus retroflexus); assay: Test G Post-Emergence Protocol; settings: Amaranthus retroflexus, post-emergence, 312 h, read-out: Pigweed, Redroot damage rating; for pest or weed control at 15.625 g/ha: 15.625 g ai/ha, evaluated after 13 days (100=total damage to plant; 0=no damage to plant); for pest or weed control at 62.5 g/ha: 62.5 g ai/ha; for pest or weed control at 62.5 g/ha / pest or weed control at 250 g/ha: evaluated after 13 days, 100=total damage to plant, 0=no damage to plant; for pest or weed control at 250 g/ha: 250 g ai/ha
Method in brief: as §1

[7] = test system: ivy-leaved morning glory (Ipomoea hederacea); assay: Test G Pre-Emergence Protocol; settings: Ipomoea, pre-emergence, 312 h, evaluated after 13 days; for pest or weed control at 15.625 g/ha: 15.625 g ai/ha; for pest or weed control at 15.625 g/ha / pest or weed control at 250 g/ha: read-out: Morningglory, Ivy-leaved damage rating (100=total damage to plant; 0=no damage to plant); for pest or weed control at 62.5 g/ha: 62.5 g ai/ha, 100=total damage to plant, 0=no damage to plant, read-out: Morningglory, Ivy-leaved damage rating; for pest or weed control at 250 g/ha: 250 g ai/ha
Method in brief: (§2)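 Visual injury (0–100) at day 13 after a single pre-emergence spray. Rates: 15.625, 62.5, 250 g/ha in acetone–water 50:50 with 0.5% Tween 20. Growth conditions: 24/16° C, 14 h light, 65% humidity.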

[8] = test system: giant foxtail (Setaria faberi); assay: Test G Pre-Emergence Protocol; settings: Setaria faberi, pre-emergence, 312 h, evaluated after 13 days; for pest or weed control at 15.625 g/ha: 15.625 g ai/ha; for pest or weed control at 15.625 g/ha / pest or weed control at 250 g/ha: read-out: Foxtail, Giant damage rating (100=total damage to plant; 0=no damage to plant); for pest or weed control at 62.5 g/ha: 62.5 g ai/ha, 100=total damage to plant, 0=no damage to plant, read-out: Foxtail, Giant damage rating; for pest or weed control at 250 g/ha: 250 g ai/ha
Method in brief: as §2

corn (Zea mays) [9] = assay: Test G Pre-Emergence Protocol; settings: Zea mays, pre-emergence, 312 h, evaluated after 13 days; for plant injury at 15.625 g/ha: 15.625 g ai/ha; for plant injury at 15.625 g/ha / plant injury at 250 g/ha: read-out: Corn damage rating (100=total damage to plant; 0=no damage to plant); for plant injury at 62.5 g/ha: 62.5 g ai/ha, 100=total damage to plant, 0=no damage to plant, read-out: Corn damage rating; for plant injury at 250 g/ha: 250 g ai/ha
Method in brief: as §2

[10] = test system: velvetleaf (Abutilon theophrasti); assay: Test G Pre-Emergence Protocol; settings: Abutilon theophrasti, pre-emergence, 312 h, evaluated after 13 days; for pest or weed control at 15.625 g/ha: 15.625 g ai/ha; for pest or weed control at 15.625 g/ha / pest or weed control at 250 g/ha: read-out: Velvetleaf damage rating (100=total damage to plant; 0=no damage to plant); for pest or weed control at 62.5 g/ha: 62.5 g ai/ha, 100=total damage to plant, 0=no damage to plant, read-out: Velvetleaf damage rating; for pest or weed control at 250 g/ha: 250 g ai/ha
Method in brief: as §2

[11] = test system: barnyardgrass (Echinochloa crus-galli); assay: Test G Pre-Emergence Protocol; settings: Echinochloa crus-galli, pre-emergence, 312 h, evaluated after 13 days; for pest or weed control at 15.625 g/ha: 15.625 g ai/ha; for pest or weed control at 15.625 g/ha / pest or weed control at 250 g/ha: read-out: Barnyardgrass damage rating (100=total damage to plant; 0=no damage to plant); for pest or weed control at 62.5 g/ha: 62.5 g ai/ha, 100=total damage to plant, 0=no damage to plant, read-out: Barnyardgrass damage rating; for pest or weed control at 250 g/ha: 250 g ai/ha
Method in brief: as §2

[12] = test system: redroot pigweed (Amaranthus retroflexus); assay: Test G Pre-Emergence Protocol; settings: Amaranthus retroflexus, pre-emergence, 312 h, evaluated after 13 days; for pest or weed control at 15.625 g/ha: 15.625 g ai/ha; for pest or weed control at 15.625 g/ha / pest or weed control at 250 g/ha: read-out: Pigweed, Redroot damage rating (100=total damage to plant; 0=no damage to plant); for pest or weed control at 62.5 g/ha: 62.5 g ai/ha, 100=total damage to plant, 0=no damage to plant, read-out: Pigweed, Redroot damage rating; for pest or weed control at 250 g/ha: 250 g ai/ha
Method in brief: as §2

Row | Structure (SMILES) | pest or weed control at 15.625 g/ha [1] | pest or weed control at 62.5 g/ha [1] | pest or weed control at 250 g/ha [1] | pest or weed control at 15.625 g/ha [2] | pest or weed control at 62.5 g/ha [2] | pest or weed control at 250 g/ha [2] | plant injury at 15.625 g/ha (corn (Zea mays) [3]) | plant injury at 62.5 g/ha (corn (Zea mays) [3]) | plant injury at 250 g/ha (corn (Zea mays) [3]) | pest or weed control at 15.625 g/ha [4] | pest or weed control at 62.5 g/ha [4] | pest or weed control at 250 g/ha [4] | pest or weed control at 15.625 g/ha [5] | pest or weed control at 62.5 g/ha [5] | pest or weed control at 250 g/ha [5] | pest or weed control at 15.625 g/ha [6] | pest or weed control at 62.5 g/ha [6] | pest or weed control at 250 g/ha [6] | pest or weed control at 15.625 g/ha [7] | pest or weed control at 250 g/ha [7] | other results
1 | CCS(=O)(=O)c1ccccc1NC(=O)[C@H]1C(=O)N(C)C[C@@H]1c1ccc(C(F)(F)F)cc1 (racemic) [Compound 1664] | 0% | 20% | 30% | 60% | 80% | 80% | 0% | 40% | 80% | 0% | 10% | 20% | 0% | 60% | 70% | 20% | 80% | 80% | 0% | 0% | pest or weed control at 62.5 g/ha [7]: 0%; pest or weed control at 15.625 g/ha [8]: 30%; pest or weed control at 62.5 g/ha [8]: 70%; pest or weed control at 250 g/ha [8]: 90%; plant injury at 15.625 g/ha (corn (Zea mays) [9]): 0%; plant injury at 62.5 g/ha (corn (Zea mays) [9]): 0%; plant injury at 250 g/ha (corn (Zea mays) [9]): 80%; pest or weed control at 15.625 g/ha [10]: 0%; pest or weed control at 62.5 g/ha [10]: 0%; pest or weed control at 250 g/ha [10]: 20%; pest or weed control at 15.625 g/ha [11]: 0%; pest or weed control at 62.5 g/ha [11]: 40%; pest or weed control at 250 g/ha [11]: 80%; pest or weed control at 15.625 g/ha [12]: 0%; pest or weed control at 62.5 g/ha [12]: 20%; pest or weed control at 250 g/ha [12]: 100%
2 | CN1C[C@H](c2cc(C(C)(C)C)ncn2)[C@@H](C(=O)Nc2cccc(F)c2F)C1=O (racemic) [Compound 1667] | 0% | 0% | 0% | 0% | 0% | 20% | 0% | 0% | 0% | 0% | 0% | 0% | 0% | 0% | 10% | 0% | 0% | 0% | 0% | 30% | pest or weed control at 15.625 g/ha [8]: 0%; pest or weed control at 62.5 g/ha [8]: 10%; pest or weed control at 250 g/ha [8]: 20%; plant injury at 15.625 g/ha (corn (Zea mays) [9]): 0%; plant injury at 62.5 g/ha (corn (Zea mays) [9]): 0%; plant injury at 250 g/ha (corn (Zea mays) [9]): 0%; pest or weed control at 15.625 g/ha [10]: 0%; pest or weed control at 62.5 g/ha [10]: 0%; pest or weed control at 250 g/ha [10]: 0%; pest or weed control at 15.625 g/ha [11]: 0%; pest or weed control at 62.5 g/ha [11]: 10%; pest or weed control at 250 g/ha [11]: 20%; pest or weed control at 15.625 g/ha [12]: 0%; pest or weed control at 62.5 g/ha [12]: 0%; pest or weed control at 250 g/ha [12]: 0%
3 | COC(=O)c1cc([C@H]2CN(C)C(=O)[C@@H]2C(=O)Nc2cccc(F)c2F)ccc1F (racemic) [Compound 1678] | 0% | 0% | 0% | 0% | 10% | 20% | 0% | 0% | 0% | 0% | 0% | 0% | 0% | 10% | 30% | 10% | 10% | 30% | 0% | 0% | pest or weed control at 62.5 g/ha [7]: 0%; pest or weed control at 15.625 g/ha [8]: 0%; pest or weed control at 62.5 g/ha [8]: 0%; pest or weed control at 250 g/ha [8]: 0%; plant injury at 15.625 g/ha (corn (Zea mays) [9]): 0%; plant injury at 62.5 g/ha (corn (Zea mays) [9]): 0%; plant injury at 250 g/ha (corn (Zea mays) [9]): 0%; pest or weed control at 15.625 g/ha [10]: 0%; pest or weed control at 62.5 g/ha [10]: 0%; pest or weed control at 250 g/ha [10]: 0%; pest or weed control at 15.625 g/ha [11]: 0%; pest or weed control at 62.5 g/ha [11]: 0%; pest or weed control at 250 g/ha [11]: 0%; pest or weed control at 15.625 g/ha [12]: 0%; pest or weed control at 62.5 g/ha [12]: 0%; pest or weed control at 250 g/ha [12]: 0%
